In brackets after ≈: the same amount, converted by molar mass.
System: strain WSG1
Test: Susceptibility evaluation, MIC method
Type: cell-based
Conditions: Weissella confusa; marbofloxacin against strain WSG1

MIC [µg/mL]	Compound
1020 (≈ 2830 µM)	CN1CCN(c2c(F)cc3c(=O)c(C(=O)O)cn4c3c2OCN4C)CC1 [marbofloxacin]

System: strain WSG1
Test: Susceptibility evaluation, K-B method (zones of inhibition of antibiotics)
Type: cell-based, Weissella confusa
Conditions: antibiotic against strain WSG1, K-B method

Compound	Diameter of zone of inhibition [mm]
CC1(C)S[C@@H]2[C@H](NC(=O)[C@H](N)c3ccc(O)cc3)C(=O)N2[C@H]1C(=O)O [Amoxicillin, amoxicillin]	15.0
CN(C)[C@@H]1C(O)=C(C(N)=O)C(=O)[C@@]2(O)C(O)=C3C(=O)c4c(O)cccc4[C@@](C)(O)[C@H]3C[C@@H]12 [Tetracycline, tetracycline]	19.5
CCN1CCN(c2cc3c(cc2F)c(=O)c(C(=O)O)cn3C2CC2)CC1 [Enrofloxacin, enrofloxacin]	13.5
CC[C@H]1OC(=O)[C@H](C)[C@@H](O[C@H]2C[C@@](C)(OC)[C@@H](O)[C@H](C)O2)[C@H](C)[C@@H](O[C@@H]2O[C@H](C)C[C@H](N(C)C)[C@H]2O)[C@](C)(O)C[C@@H](C)CN(C)[C@H](C)[C@@H](O)[C@]1(C)O [Azithromycin, azithromycin]	15.5
Cc1onc(-c2ccccc2)c1C(=O)N[C@@H]1C(=O)N2[C@@H]1SC(C)(C)[C@@H]2C(=O)O [Oxacillin, oxacillin]	7.5
CC(=O)OCC1=C(C(=O)O)N2C(=O)[C@@H](NC(=O)Cc3cccs3)[C@H]2SC1 [Cephalothin, cephalothin]	23.5
CC1=C(C(=O)O)N2C(=O)[C@@H](NC(=O)[C@H](N)C3=CCC=CC3)[C@H]2SC1 [Cefradine, cefradine]	17.5
O=C(N[C@H](CO)[C@H](O)c1ccc([N+](=O)[O-])cc1)C(Cl)Cl [Chloramphenicol, chloramphenicol]	23.5
Cc1nnc(SCC2=C(C(=O)O)N3C(=O)[C@@H](NC(=O)Cn4cnnn4)[C@H]3SC2)s1 [Cefazolin, cefazolin]	19.5
CCC[C@@H]1C[C@@H](C(=O)N[C@@H]([C@H]2O[C@H](SC)[C@H](O)[C@@H](O)[C@H]2O)[C@H](C)Cl)N(C)C1 [Clindamycin, clindamycin]	23.0
CN[C@H](CC(C)C)C(=O)N[C@H]1C(=O)N[C@@H](CC(N)=O)C(=O)N[C@H]2C(=O)N[C@H]3C(=O)N[C@H](C(=O)N[C@H](C(=O)O)c4cc(O)cc(O)c4-c4cc3ccc4O)[C@H](O)c3ccc(c(Cl)c3)Oc3cc2cc(c3O[C@@H]2O[C@H](CO)[C@@H](O)[C@H](O)[C@H]2O[C@H]2C[C@](C)(N)[C@H](O)[C@H](C)O2)Oc2ccc(cc2Cl)[C@H]1O [Vancomycin, vancomycin]	0.0
CC1=C(C(=O)O)N2C(=O)[C@@H](NC(=O)[C@H](N)c3ccccc3)[C@H]2SC1 [Cefalexin, cefalexin]	15.5
penicillin	23.5

From patent US20250073284A1, “WEISSELLA CONFUSA, CULTURE METHOD THEREFOR AND USE THEREOF” (SHANGHAI SINGEN PET NUTRITION CO., LTD., priority 2021, published 2025)
